From US11661403B2, “Oxadiazole compounds” (Vivace Therapeutics, Inc., priority 2018, dated 2023)

Test system: 8XTBD luciferase reporter (YAP) in HEK293T cells
Test: YAP Reporter Assay
Type: cell-based
Conditions: Homo sapiens, HEK-293T, 24 h, read-out: Firefly Luciferase IC50 (μM)

Compound `CN(C)C(=O)c1nnc(-c2ccccc2Nc2ccc(C(F)(F)F)cc2)o1` [Compound 194, N,N-dimethyl-5-(2-((4-(trifluoromethyl)phenyl)amino)phenyl)-1,3,4-oxadiazole-2-carboxamide] has an IC50 of 1 to 5 µM.

Same assay, conditions: Homo sapiens, HEK-293T; HEK293T cells stably transfected with 8XTBD luciferase reporter and pRLTK; 24-hr incubation; top concentration 3 μM; read-out: Firefly Luciferase IC50

First: NC(CO)c1nnc(-c2ccccc2Nc2ccc(C(F)(F)F)cc2)o1 (centres unmarked) [Compound 30, 2-amino-2-(5-(2-((4-(trifluoromethyl)phenyl)amino)phenyl)-1,3,4-oxadiazol-2-yl)ethanol]
Second: OC(c1nnc(-c2ccccc2Nc2ccc(C(F)(F)F)cc2)o1)C(F)F (centres unmarked) [Compound 60, 2,2-difluoro-1-(5-(2-((4-(trifluoromethyl)phenyl)amino)phenyl)-1,3,4-oxadiazol-2-yl)ethanol]
The IC50 of the first is higher: 0.1 to 1 µM for the first, < 0.1 µM for the second.

First: OCCc1nnc(-c2ccccc2Nc2ccc(C(F)(F)F)cc2)o1 [Compound 2, 2-(5-(2-((4-(trifluoromethyl)phenyl)amino)phenyl)-1,3,4-oxadiazol-2-yl)ethan-1-ol]
Second: N#CCc1nnc(-c2ccccc2Nc2ccc(C(F)(F)F)cc2)o1 [Compound 137, 2-(5-(2-((4-(trifluoromethyl)phenyl)amino)phenyl)-1,3,4-oxadiazol-2-yl)acetonitrile]
The IC50 of the first is lower: < 0.1 µM for the first, 0.1 to 1 µM for the second.

`CC(C)N(C#N)CCc1nnc(-c2ccccc2Nc2ccc(C(F)(F)F)cc2)o1` [Compound 93, N-isopropyl-N-(2-(5-(2-((4-(trifluoromethyl)phenyl)amino)phenyl)-1,3,4-oxadiazol-2-yl)ethyl)cyanamide] and `CC(C)N(C#N)Cc1nnc(-c2ccccc2Nc2ccc(C(F)(F)F)cc2)o1` [Compound 99, N-isopropyl-N-((5-(2-((4-(trifluoromethyl)phenyl)amino)phenyl)-1,3,4-oxadiazol-2-yl)methyl)cyanamide] fall in the same range of IC50: 0.1 to 1 µM for the first, 0.1 to 1 µM for the second.

First: CC1(C)OCC(O)(c2nnc(-c3ccccc3Nc3ccc(C(F)(F)F)cc3)o2)CO1 [Compound 199, 2,2-dimethyl-5-(5-(2-((4-(trifluoromethyl)phenyl)amino)phenyl)-1,3,4-oxadiazol-2-yl)-1,3-dioxan-5-ol]
Second: CC1(c2nnc(-c3ccccc3Nc3ccc(C(F)(F)F)cc3)o2)CO1 (centres unmarked) [Compound 132, 2-(5-(2-methyloxiran-2-yl)-1,3,4-oxadiazol-2-yl)-N-(4-(trifluoromethyl)phenyl)aniline]
The IC50 of the first is higher: 1 to 5 µM for the first, < 0.1 µM for the second. The second is the more potent here.

Compared with `O=C1OCC(c2nnc(-c3ccccc3Nc3ccc(C(F)(F)F)cc3)o2)O1` (centres unmarked) [Compound 29, 4-[5-[2-[4-(trifluoromethyl)anilino]phenyl]-1,3,4-oxadiazol-2-yl]-1,3-dioxolan-2-one], `COC(=O)c1nnc(-c2ccccc2Nc2ccc(C(F)(F)F)cc2)o1` [Compound 8, methyl 5-(2-((4-(trifluoromethyl)phenyl)amino)phenyl)-1,3,4-oxadiazole-2-carboxylate] is higher in IC50: < 0.1 µM for the first, 0.1 to 1 µM for the second.

`OC1(c2nnc(-c3ccccc3Nc3ccc(C(F)(F)F)cc3)o2)CCCC1` [Compound 52, 1-(5-(2-((4-(trifluoromethyl)phenyl)amino)phenyl)-1,3,4-oxadiazol-2-yl)cyclo pentanol] and `COC1(c2nnc(-c3ccccc3Nc3ccc(C(F)(F)F)cc3)o2)CC1` [Compound 67, 2-(5-(1-methoxycyclopropyl)-1,3,4-oxadiazol-2-yl)-N-(4-(trifluoromethyl)phenyl) aniline] cannot be ordered by IC50: < 0.1 µM for the first, < 0.1 µM for the second.

First: CCOC(=O)c1nnc(-c2ccccc2Nc2ccc(C(F)(F)F)cc2)o1 [Compound 3, ethyl 5-(2-((4-(trifluoromethyl)phenyl)amino)phenyl)-1,3,4-oxadiazole-2-carboxylate]
Second: CCOC(=O)Cc1nnc(-c2ccccc2Nc2ccc(C(F)(F)F)cc2)o1 [Compound 1, ethyl 2-(5-(2-((4-(trifluoromethyl)phenyl)amino)phenyl)-1,3,4-oxadiazol-2-yl) acetate]
The IC50 of the first is lower: < 0.1 µM for the first, 0.1 to 1 µM for the second. The first is the more potent here.

Compared with `CC(O)(CC#N)c1nnc(-c2ccccc2Nc2ccc(C(F)(F)F)cc2)o1` (centres unmarked) [Compound 130, 3-hydroxy-3-(5-(2-((4-(trifluoromethyl)phenyl)amino)phenyl)-1,3,4-oxadiazol-2-yl)butanenitrile], `CC(O)(CN)c1nnc(-c2ccccc2Nc2ccc(C(F)(F)F)cc2)o1` (centres unmarked) [Compound 134, 1-amino-2-(5-(2-((4-(trifluoromethyl)phenyl)amino)phenyl)-1,3,4-oxadiazol-2-yl)propan-2-ol] is higher in IC50: < 0.1 µM for the first, 0.1 to 1 µM for the second.

`C[C@@]1(c2nnc(-c3ccccc3Nc3ccc(C(F)(F)F)cc3)o2)CCNC1=O` [Compound 75, (S)-3-methyl-3-(5-(2-((4-(trifluoromethyl)phenyl)amino)phenyl)-1,3,4-oxadiazol-2-yl)pyrrolidin-2-one] and `CC1(c2nnc(-c3ccccc3Nc3ccc(C(F)(F)F)cc3)o2)OCCO1` [Compound 86, 2-(5-(2-methyl-1,3-dioxolan-2-yl)-1,3,4-oxadiazol-2-yl)-N-(4-(trifluoromethyl)phenyl)aniline] cannot be ordered by IC50: < 0.1 µM for the first, < 0.1 µM for the second.

First: CCOC(=O)CNc1nnc(-c2ccccc2Nc2ccc(C(F)(F)F)cc2)o1 [Compound 9, ethyl (5-(2-((4-(trifluoromethyl)phenyl)amino)phenyl)-1,3,4-oxadiazol-2-yl)glycinate]
Second: CC(C)(CO)c1nnc(-c2ccccc2Nc2ccc(C(F)(F)F)cc2)o1 [Compound 45, 2-methyl-2-(5-(2-((4-(trifluoromethyl)phenyl)amino)phenyl)-1,3,4-oxadiazol-2-yl)propan-1-ol]
The IC50 of the first is higher: 1 to 5 µM for the first, < 0.1 µM for the second. The second is the more potent here.

First: CNC(C)Cc1nnc(-c2ccccc2Nc2ccc(C(F)(F)F)cc2)o1 (centres unmarked) [Compound 147, 2-(5-(2-(methylamino)propyl)-1,3,4-oxadiazol-2-yl)-N-(4-(trifluoromethyl)phenyl)aniline]
Second: CN(C#N)Cc1nnc(-c2ccccc2Nc2ccc(C(F)(F)F)cc2)o1 [Compound 168, N-methyl-N-((5-(2-((4-(trifluoromethyl)phenyl)amino)phenyl)-1,3,4-oxadiazol-2-yl)methyl)cyanamide]
The IC50 of the first is higher: 1 to 5 µM for the first, < 0.1 µM for the second.

`CN(C#N)CCc1nnc(-c2ccccc2Nc2ccc(C(F)(F)F)cc2)o1` [Compound 174, N-methyl-N-(2-(5-(2-((4-(trifluoromethyl)phenyl)amino)phenyl)-1,3,4-oxadiazol-2-yl)ethyl)cyanamide] and `C#CCCNC(=O)c1nnc(-c2ccccc2Nc2ccc(C(F)(F)F)cc2)o1` [Compound 115, N-(but-3-yn-1-yl)-5-(2-((4-(trifluoromethyl)phenyl)amino)phenyl)-1,3,4-oxadiazole-2-carboxamide] cannot be ordered by IC50: < 0.1 µM for the first, < 0.1 µM for the second.

`Cc1ccc(S(=O)(=O)N2C(=O)OCC2c2nnc(-c3ccccc3Nc3ccc(C(F)(F)F)cc3)o2)cc1` (centres unmarked) [Compound 16, 3-tosyl-4-(5-(2-((4-(trifluoromethyl)phenyl)amino)phenyl)-1,3,4-oxadiazol-2-yl)oxazolidin-2-one] was tested, and the IC50 was 0.1 to 1 µM.
